According to US20090005345A1, “Detoxification of Shellfish” (priority 2005, published 2009):

Tested on: bivalves
Assay: Feed test: detoxification of DSP-toxin containing bivalves by feeding in land-based vessels, DSP by HPLC
Format: in vivo
Settings: Test 5; additive given separately in addition to bioprotein; 7.2° C.
From the text: Seawater from a depth of 45 metres in the Eidfjord, with a salinity of 33-34 per mille, was pumped up into a reservoir on land. The water was then passed into the test vessels. The bivalves were evenly distributed on the mesh/grating in a layer of about 10 cm in thickness. The vessel diameter is about 70 cm. In these small scale tests importance was given to ensuring that oxygen should not be a limiting factor. That is to say that there is sufficient flow-through of water to obtain approximate oxygen saturation in the outflow. The amount of water through each vessel was about 8 litres per minute.
Feeding was effected automatically batchwise throughout the day. That is to say that the daily consumption of the feed slurry according to Example 1 was filled into a tank once a day. The slurry runs from this tank to the bivalve vessel cascade via a valve. In our tests we chose to feed batchwise once an hour. Such portion feeding is important in order to obtain an even distribution to the whole bivalve population. The feed was added in the course of a few seconds. […]
In the case of all the tests, samples were taken immediately prior to the test start and after given time periods. […] The samples were analysed at the Norwegian College of Veterinary Medicine using HPLC (High Performance Liquid Chromatography).
The half-life for DSP was calculated using the following formula: […]

O=C1O[C@H]([C@@H](O)CO)C(O)=C1O [Vitamin C]
Effect on DSP half-life of additive used in addition to bioprotein: no effect
